Read-outs that look alike come from different tables or passages of the source.
Experiments:
[1] = system: SK-HEP-1; assay: XTT viability assay, SK-HEP-1; assay type: cell-based; settings: Homo sapiens, SK-HEP1; Liver Cancer, SK-HEP-1, XTT
Text: (§1) Cells and culture conditions. Primary astrocytes (Lonza, Walkersville, Md.; ABM™ Basal Media with AGM™ SingleQuots™ Supplement Pack), fibroblast (ATCC; Fibroblast Basal Medium (ATCC© PCS-201-030™) with Fibroblast Growth Kit-Serum-free (ATCC© PCS-201-040™)), airway epithelial cell (ATCC; Airway Epithelial Cell Basal Medium (ATCC© PCS-300-030™) with Bronchial Epithelial Cell Growth Kit (ATCC© PCS-300-040™)), renal proximal tubule (ATCC; Renal Epithelial Cell Basal Medium (ATCC© PCS-400-030™) with Renal Epithelial Cell Growth Kit (ATCC© PCS-400-040™)), prostate epithelial cell (Lonza; PrEGM™ BulletKit™) and mammary epithelial cell (Lonza; MEBM™ BulletKit™) were kept in a humidified incubator at 37° C. adjusted to 5% CO2. […]
(§2) XTT assay. […] Cell viability was measured using the R&D Systemsm TACS XTT Cell Proliferation/Viability Assay (R&D Systems, Minneapolis, Minn.).

[2] = system: SNU-387; assay: XTT viability assay, SNU-387; assay type: cell-based; settings: Homo sapiens; Liver Cancer, SNU-387, XTT
Text: as §1, §2

[3] = system: DU-145; assay: XTT viability assay, DU-145; assay type: cell-based; settings: Homo sapiens; Prostate Cancer, DU-145, XTT
Text: as §1, §2

[4] = system: CfPAC-1; assay: XTT viability assay, CfPAC-1; assay type: cell-based; settings: Homo sapiens; Pancreatic Cancer, CfPAC-1, XTT
Text: as §1, §2

[5] = system: Cancer cell lines; assay: XTT viability assay, panel of cancer cell lines (means and ranges); assay type: cell-based; settings: Homo sapiens
Text: (§3) Cells and culture conditions. Primary astrocytes (Lonza, Walkersville, Md.; ABM™ Basal Media with AGM™ SingleQuots™ Supplement Pack), fibroblast (ATCC; Fibroblast Basal Medium (ATCC© PCS-201-030™) with Fibroblast Growth Kit-Serum-free (ATCC© PCS-201-040™)), airway epithelial cell (ATCC; Airway Epithelial Cell Basal Medium (ATCC© PCS-300-030™) with Bronchial Epithelial Cell Growth Kit (ATCC© PCS-300-040™)), renal proximal tubule (ATCC; Renal Epithelial Cell Basal Medium (ATCC© PCS-400-030™) with Renal Epithelial Cell Growth Kit (ATCC© PCS-400-040™)), prostate epithelial cell (Lonza; PrEGM™ BulletKit™) and mammary epithelial cell (Lonza; MEBM™ BulletKit™) were kept in a humidified incubator at 37° C. adjusted to 5% CO2. Prostate (PC3, LNCaP, DU-145), breast (MDA-MB-231, MDA-MB-453, SK-BR-3), head and neck (A253, Detroit 562, SCC-25), melanoma (SK-Mel-3, SK-Mel-1, RPMI-7951), pancreatic (CfPAC-1, BxPC3, SW1990), lung (A549, NCI-H1299, NCI-H1437) and liver (SNU-475, SK-HEP-1, SNU-387) cancer cell lines were obtained from ATCC and cultured in their respective media (prostate cells: RPMI-1640, MDA-MB-231: RPMI-1640, MDA-MB-453: Leibovitz's L-15, SK-BR-3: McCoy's 5a, A253: McCoy's 5a, Detroit 562: EMEM, SCC-25: DMEM, SK-Mel-3: McCoy's 5a, SK-Mel-1: EMEM, RPMI-7951: EMEM), CfPAC-1: IMDM, BxPC3: RPMI-1640, SW1990: Leibovitz's L-15), A549: F-12K, NCI-H1299: RPMI-1640, NCI-H1437: RPMI-1640, SNU-475: RPMI-1640, SK-HEP-1: EMEM, SNU-387: RPMI-1640. All media were supplemented with 10% (vol/vol) filtered fetal bovine serum (FBS, Invitrogen, Carlsbad, Calif.), 1% penicillin/streptomycin (Invitrogen) and maintained in a humidified incubator at 37° C. with 5% CO2 except for MDA-MB-453 and SW1990 grown at 37° C. without CO2 control. Wild type (ATCC) and C342T XPB knock-in cells (named T7115) of Human Embryonic Kidney 293T (HEK293T), HeLa (ATCC) were cultured in DMEM (GIBCO) with 10% (vol/vol) filtered fetal bovine serum (FBS, Invitrogen, Carlsbad, Calif.), 1% penicillin/streptomycin (Invitrogen).
XTT assay. Five thousand cells/well were plated on flat-bottom, transparent 96-well plate in a full growth media and incubated at appropriate culture conditions. Twenty four hours after seeding, cells were treated with indicated drugs and incubated for 47 hrs. Cell viability was measured using the R&D Systemsm TACS XTT Cell Proliferation/Viability Assay (R&D Systems, Minneapolis, Minn.).

[6] = system: BxPC3; assay: XTT viability assay, BxPC3; assay type: cell-based; settings: Homo sapiens, BXPC-3, Pancreatic Cancer
Text: as §1, §2

[7] = system: A253; assay: XTT viability assay, A253; assay type: cell-based; settings: Homo sapiens, Head and Neck Cancer
Text: as §1, §2

[8] = system: SK-Mel-3; assay: XTT viability assay, SK-Mel-3; assay type: cell-based; settings: Homo sapiens, SK-MEL3; Melanoma, SK-Mel-3, XTT
Text: as §1, §2

[9] = system: SW1990; assay: XTT viability assay, SW1990; assay type: cell-based; settings: Homo sapiens, Pancreatic Cancer
Text: as §1, §2

[10] = system: HEK 293T cells; assay: HEK293T cell proliferation assay ([3H]-thymidine incorporation); assay type: cell-based, human; settings: for IC50: Homo sapiens, HEK-293T, 24 h, read-out: IC50 ± SEM
Text: as §3
Proliferation and viability assays. [^3H]-thymidine incorporation. HEK293T cells (10,000 cells/well) were seeded into 96-well plates then cultured in DMEM plus 10% FBS and 1% penicillin/streptomycin at 37° C. with 5% CO2 overnight. Drugs were added at indicated concentrations and incubation was continued for an additional 24 h. For hypoxia, PC3 (5,000 cells/well) were exposed to 1% O2 (Airgas) in a humidified hypoxia chamber (Billups-Rothenberg) in 37° C. for 48 h prior to drug exposure for 48 h. Treated cells were then pulsed using an aliquot of 1 μCi of [^3H]-thymidine (Perkin Elmer) per well for an additional 6 h. Radiolabelled cells were harvested onto a printed Filtermat A glass fiber filter (Perkin Elmer) using a Tomtec Harvester 96 Mach III M. Betaplate Scint (Perkin Elmer) scintillation fluid was added to radiolabelled filters followed by scintillation counting on Microbeta2 LumiJET Microplate Counter (Perkin Elmer).

[11] = system: Renal Proximal Tubule; assay: XTT viability assay, renal proximal tubule cells; assay type: cell-based; settings: Homo sapiens, Primary normal cells
Text: as §1, §2

[12] = system: SK-BR-3; assay: XTT viability assay, SK-BR-3; assay type: cell-based; settings: Homo sapiens; Breast Cancer, SK-BR-3, XTT
Text: as §1, §2

[13] = system: A549; assay: XTT viability assay, A549; assay type: cell-based; settings: Homo sapiens, Lung Cancer
Text: as §1, §2

[14] = system: Detroit 562; assay: XTT viability assay, Detroit 562; assay type: cell-based; settings: Homo sapiens; Head and Neck Cancer, Detroit 562, XTT
Text: as §1, §2

[15] = system: MDA-MB-453; assay: XTT viability assay, MDA-MB-453; assay type: cell-based; settings: Homo sapiens; Breast Cancer, MDA-MB-453, XTT
Text: as §1, §2

[16] = system: Airway Epithelial cell; assay: XTT viability assay, airway epithelial cells; assay type: cell-based; settings: Homo sapiens, Primary normal cells
Text: as §1, §2

[17] = Cancer cell lines (n = 21), read-out: mean IC50 by cell type
[18] = Less sensitive lines (n = 13), IC50 ≥ 1 μM, read-out: mean IC50 by cell type
[19] = Sensitive lines (n = 8), IC50 < 1 μM, read-out: mean IC50 by cell type

CC(C)[C@]12O[C@H]1[C@@H]1O[C@]13[C@]1(O[C@H]1C[C@H]1C4=C(CC[C@@]13C)C(=O)OC4)[C@@H]2OC(=O)CCC(=O)O[C@@H]1OC(CO)[C@@H](O)C(O)C1O (some centres unmarked) [Compound 10]
IC50 [1]: 3.38 ± 0.71 µM
IC50 [2]: 15.5 ± 9.28 µM
IC50 [3]: 400 ± 130 nM
IC50 [4]: 510 ± 350 nM
IC50 [5, 17]: 2.42 ± 2 µM
IC50 [5, 18]: 3.7 ± 2.33 µM
IC50 [5, 19]: 0.49 µM
IC50 [6]: 4.15 ± 0.18 µM
IC50 [7]: 710 ± 470 nM
IC50 [8]: 420 ± 340 nM
IC50 [9]: 1.52 ± 0.33 µM
IC50 [10]: 279 ± 0.611 nM
IC50 [11]: 4.83 ± 1.54 µM
IC50 [12]: 1300 nM
IC50 [13]: 1700 ± 790 nM
IC50 [14]: 1420 ± 830 nM
IC50 [15]: 530 ± 200 nM
IC50 [16]: 4.12 ± 1.39 µM

CC(C)[C@]12O[C@H]1[C@@H]1O[C@]13[C@]1(O[C@H]1C[C@H]1C4=C(CC[C@@]13C)C(=O)OC4)[C@@H]2OC(=O)CCCO[C@@H]1OC(CO)[C@@H](O)C(O)C1O (stereo in doubt) [Compound 1]
IC50 [1]: 5.9 ± 0.28 µM
IC50 [2]: 24.4 ± 8.9 µM
IC50 [3]: 440 ± 190 nM
IC50 [4]: 470 ± 320 nM
IC50 [5, 17]: 3.94 ± 3.26 µM
IC50 [5, 18]: 6.25 ± 3.68 µM
IC50 [5, 19]: 0.47 ± 0.06 µM
IC50 ([5]; with the exception of SNU-387 and NCI-H1299, read-out: range of IC50 values for cancer cell lines): 0.26 to 6.5 µM
IC50 [6]: 5 ± 2.83 µM
IC50 [7]: 540 ± 400 nM
IC50 [8]: 440 ± 250 nM
IC50 [9]: 6.48 ± 2.79 µM
IC50 [10]: 71 nM
fold more potent against cancer cells in vitro than compound 10 ([10]; in vitro): 4 fold
IC50 [11]: 5.94 ± 2.21 µM
IC50 [12]: 2160 ± 1590 nM
IC50 [13]: 2720 ± 1410 nM
IC50 [14]: 1240 ± 610 nM
IC50 [15]: 530 ± 280 nM
IC50 [16]: 7.13 ± 2.84 µM

— patent publication US20230134986A1, “GLUCOSE TRIPTOLIDE CONJUGATES AND USES THEREOF” (The Johns Hopkins University, priority 2020, published 2023)
